This is an account of results in patent US6903098B1, “Use of phthalazine derivatives” (Abbott GmbH & Co., priority 1999, dated 2005).

This test deals with PARP 1. In words: HTRF assay for PARP 1 inhibitory effect. Type of test: biochemical, human or bovine. To be noted: at 10 μM. An excerpt: In the HTRF PARP assay according to the invention, histones, as target proteins for modification by PARP, are labeled indirectly with an XL665 fluorophore. The antibody is labeled directly with a europium cryptate. If the XL665 fluorophore is in the direct vicinity in space, which is ensured by binding to the poly(ADP-ribose) on the histone, then an energy transfer is possible. The emission at 665 nm is thus directly proportional to the amount of bound antibody, which in turn is equivalent to the amount of poly(ADP-ribose). The measured signal thus corresponds to the PARP activity. The principle of measurement is depicted diagrammatically in FIG. 7. The materials used are identical to those used in the ELISA (see above) unless expressly stated.
Histones were dissolved in a concentration of 3 mg/ml in Hepes buffer (50 mM, pH=7.5). Biotinylation took place with sulfo-NHS-LC-biotin (Pierce, #21335T). A molar ratio of 4 biotin per histone was used. The incubation time was 90 minutes (RT). The biotinylated histones were then purified on a G25 SF HR10/10 column (Pharmacia, 17-0591-01) in Hepes buffer (50 mM, pH=7.0) in order to remove excess biotinylation reagent. […]
Measurement was then possible after 30 minutes (up to 4 hours). […] The Ki values were calculated as described for the ELISA. […]

For `O=c1[nH]nc(CN2CCN(c3ccccc3)CC2)c2ccccc12` [4-(4-phenylpiperazin-1-yl)methyl-2H-phthalazin-1-one], the “inhibition of PARP 1” value was found to be 38%.
